The text below walks through data of patent US7129244B2, “Triazolopyrimidines and related analogs as HSP90-inhibitors” (Conforma Therapeutics Corporation, priority 2003, dated 2006).

The test system of one assay is HER2/Neu protein. Description: HER2 Degradation Assay. Conditions: Homo sapiens, MCF7, 16 h, MCF7 breast carcinoma cells, 16 h incubation; concentration at which there was 50% degradation of the HER2/Neu protein. Format: cell-based. As to the method: MCF7 breast carcinoma cells (ATCC) were grown in Dulbecco's modified Eagle's medium (DMEM) containing 10% fetal bovine serum (FBS) and 10 mM HEPES, and plated in 24 well plates (50% confluent). Twenty-four hrs later (cells are 65–70% confluent), test compounds were added and incubated overnight for 16 h. […] The wells were washed with 1 mL phosphate buffered saline (PBS), and 200 μL trypsin was added to each well. After trypsinization was complete, 50 μL of FBS was added to each well. Then 200 μL cells was transferred to 96 well plates. The cells were pipetted up and down to obtain a single cell suspension. The plates were centrifuged at 2,500 rpm for 1 min using a Sorvall Legend RT™ tabletop centrifuge (Kendro Laboratory Products, Asheville, N.C.). The cells were then washed once in PBS containing 0.2% BSA and 0.2% sodium azide (BA buffer). Phycoerythrin (PE) conjugated anti HER2/Neu antibody (Becton Dickinson, #340552), or PE conjugated anti-keyhole limpet hemacyanin [KLH] (Becton Dickinson, #340761) control antibody was added at a dilution of 1:20 and 1:40 respectively (final concentration was 1 μg/mL) and the cells were pipeted up and down to form a single cell suspension, and incubated for 15 mins. The cells were washed twice with 200 μL BA buffer, and resuspended in 200 μL BA buffer, and transferred to FACSCAN tubes with an additional 250 μL BA buffer. Samples were analyzed using a FACSCalibur™ flow cytometer (Becton Dickinson, San Jose, Calif.) equipped with Argon-ion laser that emits 15 mW of 488 nm light for excitation of the PE fluorochrome. 10,000 events were collected per sample. A fluorescence histogram was generated and the mean fluorescence intensity (MFI) of each sample was determined using Cellquest software. The background was defined as the MFI generated from cells incubated with control IgG-PE, and was subtracted from each sample stained with the HER2/Neu antibody. Cells incubated with DMSO was always done as untreated controls since the compounds were resuspended in DMSO. Percent degradation of HER2 was calculated as follows: % HER2 degraded=[(MFl untreated cells−MFl treated cells)/MFl untreated cell]×100
IC50 is defined as the concentration at which there was 50% degradation of the HER2/Neu protein.
For orientation: IC50 means the concentration that inhibits the measured activity by half. A lower IC50 goes with greater potency in that assay. `COc1c(C)cnc(Cn2nnc3c(Cl)nc(N)nc32)c1C` [Example 1, 7-chloro-3-(4-methoxy-3,5-dimethyl-pyridin-2-ylmethyl)-3H-[1,2,3]triazolo[4,5-d]pyrimidin-5-ylamine] yielded an IC50 of 0.4 µM. Same read-out and setting: the same measure for `COc1cc(Cn2nnc3c(Cl)nc(N)nc32)cc(OC)c1OC` [Example 5, 7-chloro-3-(3,4,5-trimethoxy-benzyl)-3H-[1,2,3]triazolo[4,5-d]pyrimidin-5-ylamine]: 15 µM; for `COc1cc(Cn2nnc3c(Cl)nc(N)nc32)c(Cl)c(OC)c1OC` [Example 6, 7-chloro-3-(2-chloro-3,4,5-trimethoxy-benzyl)-3H-[1,2,3]triazolo[4,5-d]pyrimidin-5-ylamine]: 12 µM; for `COc1c(Cl)c(Cn2nnc3c(Cl)nc(N)nc32)c(Cl)c(OC)c1OC` [Example 7, 7-Chloro-3-(2,6-dichloro-3,4,5-trimethoxy-benzyl)-3H-[1,2,3]triazolo[4,5-d]pyrimidin-5-ylamine]: 4 µM.

In turn, `COc1cc(Cn2nnc3c(Cl)nc(N)nc32)c(Br)c(OC)c1OC` [Example 8, 7-chloro-3-(2-bromo-3,4,5-trimethoxy-benzyl)-3H-[1,2,3]triazolo[4,5-d]pyrimidin-5-ylamine] yielded an IC50 of 6.5 µM. The same measure, in the same setting: the same measure for `COc1c(Br)c(Cn2nnc3c(Cl)nc(N)nc32)c(Br)c(OC)c1OC` [Example 9, 7-Chloro-3-(2,6-dibromo-3,4,5-trimethoxy-benzyl)-3H-[1,2,3]triazolo[4,5-d]pyrimidin-5-ylamine]: 6.3 µM; for `COc1cc(Cn2nnc3c(Cl)nc(N)nc32)c(I)c(OC)c1OC` [Example 10, 7-chloro-3-(2-iodo-3,4,5-trimethoxy-benzyl)-3H-[1,2,3]triazolo [4,5-d]pyrimidin-5-ylamine]: 10 µM.

Take `COc1cc(Cn2nnc3c(Cl)nc(N)nc32)c(Cl)c(OC)c1` [Example 12, 7-chloro-3-(2-chloro-3,5-dimethoxy-benzyl)-3H-[1,2,3]triazolo[4,5-d]pyrimidin-5-ylamine]: it took 8.5 µM to reach half-maximal inhibition (IC50).

Compound `COc1cc(Cn2nnc3c(Cl)nc(N)nc32)c(Br)c(OC)c1` [Example 13, 7-chloro-3-(2-bromo-3,5-dimethoxy-benzyl)-3H-[1,2,3]triazolo[4,5-d]pyrimidin-5-ylamine] returned a half-maximal inhibitory concentration (IC50) of 16 µM. On the same count and under the same terms, in the case of `COc1cc(Cn2nnc3c(Cl)nc(N)nc32)c(OC)cc1Br` [Example 16, 7-chloro-3-(4-bromo-2,5-dimethoxy-benzyl)-3H-[1,2,3]triazolo[4,5-d]pyrimidin-5-ylamine] it was 22 µM; in that of `COc1cc(Cl)c(OC)c(Cn2nnc3c(Cl)nc(N)nc32)c1` [Example 17, 7-chloro-3-(3-chloro-2,5-dimethoxy-benzyl)-3H-[1,2,3]triazolo[4,5-d]pyrimidin-5-ylamine], 19 µM.

In another assay the test system is MCF7 breast carcinoma cells. Description: MTS Assay. Format: cell-based. Conditions: Homo sapiens, concentration giving 50% viable cell number. As to the method: MTS assays measures the cytotoxicity of geldanamycin derivatives. MTS (3-(4,5-dimethylthiazol-2-yl)-5-(3-carboxymethoxyphenyl)-2-(4-sulfophenyl)-2H-tetrazolium is a tetrazolium dye that is converted to a formazan product by dehydrogenase enzymes of metabolically active cells (Corey, A. et al. “Use of an aqueous soluble tetrazolium/formazan assay for cell growth assays in culture,” Cancer Commun. 1991, 3, 207–212). Cells were seeded in 96 well plates at 2000 cells/well and allowed to adhere overnight in Dulbecco's modified Eagle's medium supplemented with 10% fetal bovine serum. The final culture volume was 100 μl. Viable cell number was determined by using the Celltiter 96 AQueous Non-radioactive Cell Proliferation Assay (Promega, Madison Wis.). The MTS/PMS (phenazine methosulfate) solution was mixed at a ratio of 20:1, and 20 μL was added per well to 100 μl of culture medium. After 2–4 hours, the formation of the formazan product was measured at 490 nm absorbance using a multiwell plate spectrophotometer. Background was determined by measuring the Abs 490 nm of cell culture medium and MTS-PMS in the absence of cells and was subtracted from all values. Percent viable cells was calculated as follows: % viable cells=(Abs at 490 nm treated cells/Abs at 490 nm untreated cells)×100 […]
In turn, `COc1c(C)cnc(Cn2nnc3c(Cl)nc(N)nc32)c1C` [Example 1, 7-chloro-3-(4-methoxy-3,5-dimethyl-pyridin-2-ylmethyl)-3H-[1,2,3]triazolo[4,5-d]pyrimidin-5-ylamine] had an IC50 of 8 µM.
